Like-named read-outs stand apart in the source and are kept apart here.
Assays:
[1] = tested on: MOLT-4 cell; test: Cytotoxicity (CC50) test, WST-8; format: cell-based, human
Source text: For the measurement of the number of cells, tetrazolium salt WST-8 (Cell Counting Kit-8 available as a kit) was employed as the chromophone. The basic principle of the cytotoxicity (CC50) test is set forth below. WST-8 is reduced by intracellular dehydrogenation enzyme to produce soluble formazan. Since the number of cells and the amount of generated formazan is linearly proportional, the number of cells can be readily measured by directly measuring the absorbancy of formazan at 450 nm. The specific procedure for measurement is set forth below. 180 μl of a culture medium was introduced into each of the wells in the range of rows A-D and columns 3-10 in a 96-well flat microtiter plate for diluting the agent. 240 μl of the sample taken at 0 hours from initiation of electrolysis was added to the well of row A, column 2 in the microtiter plate. 240 μl of the sample taken 2 hours from initiation of electrolysis was added to the well of row B, column 2. 240 μl of the sample taken 4 hours from initiation of electrolysis was added to the well of row C, column 2. 240 μl of the sample taken 6 hours from initiation of electrolysis was added to the well of row D, column 2. To produce respective columns of sample dilutions, samples of 60 μl each was taken from the above-described samples of 240 μl. These samples of 60 μl were sequentially added to the right side well to be sufficiently pipeted. This was conducted up to column 10. Two of U-bottom 96-well microtiter plates for cultivation were prepared, and 200 μl of PBS was applied to all the side-most wells. 100 μl of culture medium was introduced into each of the wells of rows B-G, columns 2-9. 150 μl of culture medium was introduced into the wells of columns 10 and 11. Then, 50 μl of cell suspension solution prepared to 5×10^6 cell/ml was introduced into each of the wells of rows B-G, columns 2-9 and column 11. The wells of column 10 were absent of cells. […] Then, the O.D. was measured at 450 nm and 620 nm using a microplate reader.

[2] = Ion chromatograph and total nitrogen analysis of electrolyzed amikacin sulfate solution; format: physicochemical; details: for Nitrogen Concentration Org-N: T-N minus NO3—N, NO2—N, NH4—N
[3] = tested on: Escherichia coli (coliform bacillus) NIHJ JC-2; test: Test of antibacterial activity of amikacin sulfate (MIC, small amount broth dilution); format: cell-based
Description: (§1) In accordance with the MIC measurement by a small amount broth dilution method which is the standard method of the Japanese Society of Chemotherapy, the antibacterial activity of amikacin sulfate was evaluated. As the culture medium for measuring sensitivity, Cation Supplemented Mueller-Hinton Broth: CSMHB (obtained from EIKEN CHEMICAL CO., LTD.) was employed. This CSMHB was dividedly-poured 90 μl each into a U-shaped bottom 96-well microplate. Samples taken 0, 2, 4 and 6 hours from initiation of electrolysis described in the above 1. were prepared. A diluted solution was prepared in accordance with the standard method for each of these samples. […] The bacilli used in the present example are identical to the two types of bacilli used in Example 1, i.e. Staphylococcus aureus (staphylococcus bacteria) FDA […] and Escherichia coli (coliform bacillus) NIHJ JC-2. A solution including bacillus for inoculation similar to that of Example 1 was prepared. The solution including bacillus was inoculated approximately 0.005 ml each into each well of the plate set forth above within 15 minutes from preparation of the solution including bacillus. In this plate, a medium not containing the agent was poured into 1-2 wells as the control of the growth of the bacillus. Cultivation was conducted for 18 to 24 hours at 35° C. The evaluation method is identical to that employed in Example 1.

[4] = tested on: Staphylococcus aureus (staphylococcus bacteria) FDA 209P; test: as above; format: cell-based
Description: as §1

[5] = High performance liquid chromatograph analysis of electrolyzed amikacin sulfate solution; format: physicochemical
[6] = 6 hours from initiation of electrolysis

OCl [hypochlorous acid]
contribution to cytotoxicity [1]: almost no contribution to cytotoxicity

O=S([O-])([O-])=S.[Na+].[Na+] [sodium thiosulfate]
contribution to cytotoxicity ([1]; in the electrolyzed samples, Molt-4 cells): almost no contribution to cytotoxicity

NCC[C@H](O)C(=O)N[C@@H]1C[C@H](N)[C@@H](O[C@H]2O[C@H](CN)[C@@H](O)[C@H](O)[C@H]2O)[C@H](O)[C@H]1O[C@H]1O[C@H](CO)[C@@H](O)[C@H](N)[C@H]1O.O=S(=O)(O)O.O=S(=O)(O)O [amikacin sulfate, Amikacin sulfate]
Nitrate nitrogen (NO3—N) share of the total nitrogen (T-N) [2, 6]: approximately 50%
ammonia nitrogen (NH4—N) share of the total nitrogen (T-N) [2, 6]: approximately 50%
Nitrogen Concentration NH4—N ([2]; electrolyzing time 0 hours): 0 mg/L
Nitrogen Concentration NO2—N ([2]; electrolyzing time 0 hours): 0 mg/L
Nitrogen Concentration NO3—N ([2]; electrolyzing time 0 hours): 0.22 mg/L
Nitrogen Concentration T-N ([2]; electrolyzing time 0 hours): 80.1 mg/L
Nitrogen Concentration Org-N ([2]; electrolyzing time 0 hours): 79.88 mg/L
Nitrogen Concentration NH4—N ([2]; electrolyzing time 1 hour): 4.18 mg/L
Nitrogen Concentration NO2—N ([2]; electrolyzing time 1 hour): 0 mg/L
Nitrogen Concentration NO3—N ([2]; electrolyzing time 1 hour): 1 mg/L
Nitrogen Concentration Org-N ([2]; electrolyzing time 1 hour): 25.52 mg/L
Nitrogen Concentration NH4—N ([2]; electrolyzing time 2 hours): 9.06 mg/L
Nitrogen Concentration NO2—N ([2]; electrolyzing time 2 hours): 0 mg/L
Nitrogen Concentration NO3—N ([2]; electrolyzing time 2 hours): 2.39 mg/L
Nitrogen Concentration T-N ([2]; electrolyzing time 2 hours): 29.65 mg/L
Nitrogen Concentration Org-N ([2]; electrolyzing time 2 hours): 18.20 mg/L
Nitrogen Concentration NH4—N ([2]; electrolyzing time 3 hours): 10.93 mg/L
Nitrogen Concentration NO2—N ([2]; electrolyzing time 3 hours): 0 mg/L
Nitrogen Concentration NO3—N ([2]; electrolyzing time 3 hours): 4.21 mg/L
Nitrogen Concentration T-N ([2]; electrolyzing time 3 hours): 32.17 mg/L
Nitrogen Concentration Org-N ([2]; electrolyzing time 3 hours): 17.03 mg/L
Nitrogen Concentration NH4—N ([2]; electrolyzing time 4 hours): 13.43 mg/L
Nitrogen Concentration NO2—N ([2]; electrolyzing time 4 hours): 0 mg/L
Nitrogen Concentration NO3—N ([2]; electrolyzing time 4 hours): 8.6 mg/L
Nitrogen Concentration T-N ([2]; electrolyzing time 4 hours): 32.75 mg/L
Nitrogen Concentration Org-N ([2]; electrolyzing time 4 hours): 10.72 mg/L
Nitrogen Concentration NH4—N ([2]; electrolyzing time 5 hours): 16 mg/L
Nitrogen Concentration NO2—N ([2]; electrolyzing time 5 hours): 0 mg/L
Nitrogen Concentration NO3—N ([2]; electrolyzing time 5 hours): 11.82 mg/L
Nitrogen Concentration T-N ([2]; electrolyzing time 5 hours): 33.04 mg/L
Nitrogen Concentration Org-N ([2]; electrolyzing time 5 hours): 5.22 mg/L
Nitrogen Concentration NH4—N ([2]; electrolyzing time 6 hours): 17.84 mg/L
Nitrogen Concentration NO2—N ([2]; electrolyzing time 6 hours): 0 mg/L
Nitrogen Concentration NO3—N ([2]; electrolyzing time 6 hours): 16.94 mg/L
Nitrogen Concentration T-N ([2]; electrolyzing time 6 hours): 32.27 mg/L
Nitrogen Concentration Org-N ([2]; electrolyzing time 6 hours): -2.51 mg/L
minimum inhibitory concentration (MIC) ([3]; 6 hours from initiation of electrolysis, as tested): > 100 µg/mL
minimum inhibitory concentration (MIC) ([3]; electrolyzing time 0 hours): 3.125 µg/mL
relative value of the MIC (MIC at 0 hours set as 1) ([3]; electrolyzing time 0 hours): 1
minimum inhibitory concentration (MIC) ([3]; electrolyzing time 2 hours): 12.5 µg/mL
relative value of the MIC (MIC at 0 hours set as 1) ([3]; electrolyzing time 2 hours): ¼
minimum inhibitory concentration (MIC) ([3]; electrolyzing time 4 hours): 50 µg/mL
relative value of the MIC (MIC at 0 hours set as 1) ([3]; electrolyzing time 4 hours): 1/16
minimum inhibitory concentration (MIC), calculated based on formula (4) ([3]; electrolyzing time 6 hours, calculated): 664 µg/mL
relative value of the MIC (MIC at 0 hours set as 1) ([3]; electrolyzing time 6 hours, from calculated MIC): 1/212
minimum inhibitory concentration (MIC) ([4]; electrolyzing time 0 hours): 0.195 µg/mL
relative value of the MIC (MIC at 0 hours set as 1) ([4]; electrolyzing time 0 hours): 1
minimum inhibitory concentration (MIC) ([4]; electrolyzing time 2 hours): 1.56 µg/mL
relative value of the MIC (MIC at 0 hours set as 1) ([4]; electrolyzing time 2 hours): ⅛
minimum inhibitory concentration (MIC) ([4]; electrolyzing time 4 hours): 6.25 µg/mL
relative value of the MIC (MIC at 0 hours set as 1) ([4]; electrolyzing time 4 hours): 1/32
minimum inhibitory concentration (MIC) ([4]; electrolyzing time 6 hours): 100 µg/mL
relative value of the MIC (MIC at 0 hours set as 1) ([4]; electrolyzing time 6 hours): 1/512
amikacin sulfate decomposed ([5]; 2 hours from initiation of electrolysis): approximately 90%
amikacin sulfate decomposed ([5]; 4 hours and thereafter from initiation of electrolysis): approximately 99%
Concentration of amikacin sulfate ([5]; electrolyzing time 0 hours (taken as 1,000 mg/L)): 1000 µg/mL
Concentration of amikacin sulfate ([5]; electrolyzing time 2 hours, from peak area at retention time 4.2 minutes): 98.579 µg/mL
Concentration of amikacin sulfate ([5]; electrolyzing time 4 hours, from peak area at retention time 4.2 minutes): 15.914 µg/mL
Concentration of amikacin sulfate ([5]; electrolyzing time 6 hours, from peak area at retention time 4.2 minutes): 10.911 µg/mL
